This is an account of results in PubChem BioAssay AID2060492 (Molecular Pharmacology Branch, DTP, NCI, 2025).

“And” between values parts separate entries of the source, which are not always exact repeats. Equal values may be shown once.

The assay relates to 695427-040-R-J1-PDC complex spheroids, viability percent T/C. Nature of the assay: Anticancer human tumor 695427-040-R-J1-PDC patient-derived colon adenocarcinoma cell line growth inhibition [GQUAD]. To be noted: for viability, T/C: stronger effect = lower value. From the text: DNA G-quadruplex Stabilizer Agents in Combinations in Complex Spheroids
A high-throughput screen of multi-cell type tumor spheroids was designed to identify active combinations of DNA G-quadruplex stabilizer agents and targeted small molecules. Complex spheroids include a stromal component modeled by human endothelial cells (HUVEC) and fibroblasts modeled by human mesenchymal stem cells (MSCs). The concentration ranges selected for each drug and investigational agent were based upon clinically achievable concentrations if the clinical Cmax of the agent was known.
Compounds. The drugs and investigational agents: pidnarulex (CX-5461; NSC782164), APTO-253 (NSC789042), BRACO-19 (NSC847499), peposertib (NSC802822), ceralasertib (NSC780249), elimusertib (NSC800525), camonsertib (NSC841442), AZD-1390 (NSC803789), olaparib (NSC753686), talazoparib (NSC767125), ART-558 (NSC835418), sotorasib (NSC818433), MRTX-1133 (NSC836407), SN-38 (NSC673596), topotecan (NSC609699), etoposide (NSC141540), doxorubicin (NSC123127), gemcitabine (NSC613327), 5-fluorouracil (NSC19893), paclitaxel (NSC125973), vemurafenib (NSC761431), panobinostat (NSC761190), R-306465 (JNJ-16241199; NSC773264), adavosertib (NSC754352), TP-3654 (NSC805149), carboplatin (NSC241240), KSQ-4279 (NSC840948), and staurosporine (NSC755774) were obtained from the National Cancer Institute (NCI) Developmental Therapeutics Program Chemical Repository (34). The FDA-approved anticancer drug set is available from the NCI Developmental Therapeutics Program. […] The stock solutions were prepared in dimethyl sulfoxide (DMSO, Sigma-Aldrich, St. Louis, MO, cat. D2650) at 800-fold the tested concentration and stored at -70 degrees C prior to their use. All drugs and investigational agents were tested over a range starting from a high concentration at or near the clinical Cmax and decreasing in half-log increments. If the clinical Cmax for an agent had not been determined, the highest concentration tested was 10 microM.
2.3 Cell Culture. All cells were maintained in an incubator at 37 degrees C and 5% CO2 with 95% humidity. The PDC lines were cultured according to standard operating procedures established by the NCI PDMR. All PDCs were thawed and cultured in Matrigel-coated flasks prepared with a working solution of 1X Ham's F-12 nutrient mix, without supplementation (Invitrogen, cat. 11765054), 100 U/mL penicillin-streptomycin (Invitrogen, cat. 15140122), and 2.5% Matrigel (Corning Inc., cat. 354248) for the first three passages. The 857933-349-R-J2-PDC line was cultured in 6C/Colon 1B media, which includes advanced DMEM/F-12 (Thermo Fisher Scientific, cat. 12634028), 10 mM HEPES (Thermo Fisher Scientific, cat. 15630080), 1X GlutaMAX supplement (Thermo Fisher Scientific, cat. 35050061), 0.1 mg/mL primocin (InvivoGen, cat. ant-pm-2), 10% defined fetal bovine serum, heat inactivated (HyClone Laboratories Inc., cat. SH30070.03HI), 50% L-WRN conditioned media (ATCC, cat. CRL-3276), 1.25 mM N-Acetyl-L-cysteine (Sigma-Aldrich, cat. A9165), 10 mM nicotinamide (Sigma-Aldrich, cat. N0636), 1X B-27 supplement (Thermo Fisher Scientific, cat. 17504044), 1X N-2 supplement (Thermo Fisher Scientific, cat. 17502048), 10 microM Y-27632 dihydrochloride (Tocris Bioscience, cat. 1254), and 50 ng/mL human EGF recombinant protein (Thermo Fisher Scientific, cat. PHG0311). The 485176-168-R4-J1-PDC line was cultured in Panc media, which includes all 6C/Colon 1B media components plus 100 ng/mL human FGF-10 (Thermo Fisher Scientific, cat. 100-26), 500 nM SB-431542 (Selleckchem, cat. S1067), and gastrin (Tocris, cat. 3006).
[…]

Where [1] appears, read: curve of first compound, second compound 0.0316 µM.
Setting [2] is: curve of first compound, second compound 0.1 µM.
Where [3] appears, read: curve of first compound, second compound 0.316 µM.
The mark [4] stands for this setting: curve of first compound, second compound 1 µM.
The mark [5] stands for this setting: curve of first compound, second compound 3.16 µM.
[6] abbreviates: curve of first compound, second compound 10 µM.
Setting [7] is: second compound 0.0316 µM, first compound 0.0316 µM.
[8] abbreviates: second compound 0.0316 µM, first compound 0.1 µM.
Where [9] appears, read: second compound 0.0316 µM, first compound 0.316 µM.
Where [10] appears, read: second compound 0.0316 µM, first compound 1 µM.
Where [11] appears, read: second compound 0.0316 µM, first compound 3.16 µM.
[12] abbreviates: second compound 0.0316 µM, first compound 10 µM.
[13] abbreviates: second compound 0.1 µM, first compound 0.0316 µM.
Where [14] appears, read: second compound 0.1 µM, first compound 0.1 µM.
The mark [15] stands for this setting: second compound 0.1 µM, first compound 0.316 µM.
The mark [16] stands for this setting: second compound 0.1 µM, first compound 1 µM.
Where [17] appears, read: second compound 0.1 µM, first compound 3.16 µM.
Setting [18] is: second compound 0.1 µM, first compound 10 µM.
Where [19] appears, read: second compound 0.316 µM, first compound 0.0316 µM.
Setting [20] is: second compound 0.316 µM, first compound 0.1 µM.
Where [21] appears, read: second compound 0.316 µM, first compound 0.316 µM.
Where [22] appears, read: second compound 0.316 µM, first compound 1 µM.
Setting [23] is: second compound 0.316 µM, first compound 3.16 µM.
Where [24] appears, read: second compound 0.316 µM, first compound 10 µM.
Where [25] appears, read: second compound 1 µM, first compound 0.0316 µM.
The mark [26] stands for this setting: second compound 1 µM, first compound 0.1 µM.
The mark [27] stands for this setting: second compound 1 µM, first compound 0.316 µM.
The mark [28] stands for this setting: second compound 1 µM, first compound 1 µM.
Setting [29] is: second compound 1 µM, first compound 3.16 µM.
Where [30] appears, read: second compound 1 µM, first compound 10 µM.
Setting [31] is: second compound 3.16 µM, first compound 0.0316 µM.
Where [32] appears, read: second compound 3.16 µM, first compound 0.1 µM.
Where [33] appears, read: second compound 3.16 µM, first compound 0.316 µM.
The mark [34] stands for this setting: second compound 3.16 µM, first compound 1 µM.
[35] abbreviates: second compound 3.16 µM, first compound 3.16 µM.
The mark [36] stands for this setting: second compound 3.16 µM, first compound 10 µM.
Where [37] appears, read: second compound 10 µM, first compound 0.0316 µM.
Setting [38] is: second compound 10 µM, first compound 0.1 µM.
The mark [39] stands for this setting: second compound 10 µM, first compound 0.316 µM.
The mark [40] stands for this setting: second compound 10 µM, first compound 1 µM.
[41] abbreviates: second compound 10 µM, first compound 3.16 µM.
[42] abbreviates: second compound 10 µM, first compound 10 µM.
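Further: spheroids exposed to compounds for seven days before readout.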

In general, viability, T/C refers to the result in the treated group divided by that in the control group, in per cent. Usually IC50 stands for the concentration that inhibits the measured activity by half. In the case of `O=C(c1cc(Cc2n[nH]c(=O)c3ccccc23)ccc1F)N1CCN(C(=O)C2CC2)CC1`, the viability, T/C by setting is: (compound 0.0316 µM) 84.8% and 115% and 98.4%; (compound 0.1 µM) 94.2% and 98.6% and 103%; (compound 0.316 µM) 93.2% and 99.7% and 95.8%; (compound 1 µM) 99.4% and 97.6% and 92.7%; (compound 3.16 µM) 72.7% and 105% and 88.9%; (compound 10 µM) 88% and 93.6% and 77.6%. Besides, under “curve of compound”, the IC50 is over 10000 nM.
Regarding `CC1COCCN1c1cc(-c2ccnn2C)c2ccnc(-c3ccn[nH]3)c2n1` (configuration not stated) + Cc1[nH]c2ccc(F)cc2c1-c1nc2c3cccnc3c3ncccc3c2[nH]1, the IC50 runs as follows: under setting [1], 289 nM; under setting [2], 271 nM; under setting [3], 259 nM; under setting [4], 136 nM; under setting [5], 56.4 nM; under setting [6], 69.7 nM. In addition, the viability, T/C is, setting by setting: under setting [7], 86.8%; under setting [8], 63.2%; under setting [9], 47.6%; under setting [10], 42%; under setting [11], 29.8%; under setting [12], 27.2%. Besides, the viability, T/C is, setting by setting: under setting [13], 91.9%; under setting [14], 63.6%; under setting [15], 53.3%; under setting [16], 30.3%; under setting [17], 34.9%; under setting [18], 30.4%. Also, the viability, T/C is, setting by setting: under setting [19], 78.5%; under setting [20], 75.5%; under setting [21], 44.7%; under setting [22], 28.5%; under setting [23], 28.5%; under setting [24], 30.1%. Besides, the viability, T/C runs as follows: under setting [25], 68.5%; under setting [26], 54.5%; under setting [27], 37.5%; under setting [28], 31.8%; under setting [29], 31.4%; under setting [30], 29.7%. The viability, T/C is, setting by setting: under setting [31], 57.8%; under setting [32], 41.7%; under setting [33], 34.2%; under setting [34], 31%; under setting [35], 25.5%; under setting [36], 27.1%. In addition, the viability, T/C is, setting by setting: under setting [37], 57.9%; under setting [38], 47.5%; under setting [39], 35.4%; under setting [40], 29.6%; under setting [41], 27.3%; under setting [42], 20.7%.
For the compound `CC(C)n1c(=O)n(C)c2cnc3cc(F)c(-c4ccc(OCCCN5CCCCC5)nc4)cc3c21`, the viability, T/C runs as follows: (compound 0.0316 µM) 97.4% and 115% and 95.5%; (compound 0.1 µM) 102% and 97.8% and 101%; (compound 0.316 µM) 110% and 102% and 97.8%; (compound 1 µM) 118% and 115% and 110%; (compound 3.16 µM) 74% and 109% and 84.6%; (compound 10 µM) 57.9% and 69.9% and 56.8%. The IC50 (curve of compound) is over 10000 nM.
With `Nc1ccn(C2OC(CO)C(O)C2(F)F)c(=O)n1` (configuration not stated), the viability, T/C is 81.8% and 90.5% and 89.3% (compound 0.0316 µM); 77.1% and 75.9% and 76.4% (compound 0.1 µM); 72.5% and 81.7% and 66.8% (compound 0.316 µM); 64.7% and 73.6% and 62.1% (compound 1 µM); 51.1% and 69.9% and 47% (compound 3.16 µM); 54.9% and 64.9% and 48.6% (compound 10 µM). Further, under “curve of compound”, the IC50 is > 10000 nM and 4780 nM.
As for `COc1ncnc(C2CC2)c1-c1ncc2cnn(Cc3ccc(-c4nc(C(F)(F)F)cn4C(C)C)cc3)c2n1` + Cc1[nH]c2ccc(F)cc2c1-c1nc2c3cccnc3c3ncccc3c2[nH]1, the IC50 by setting is: under setting [1], over 10000 nM; under setting [2], over 10000 nM; under setting [3], over 10000 nM; under setting [4], over 10000 nM; under setting [5], over 10000 nM; under setting [6], over 10000 nM. Also, the viability, T/C is, setting by setting: under setting [7], 98%; under setting [8], 96.7%; under setting [9], 92.9%; under setting [10], 106%; under setting [11], 112%; under setting [12], 70%. For the same compound, the viability, T/C was 107% under setting [13]; 93.9% under setting [14]; 98.5% under setting [15]; 98.4% under setting [16]; 100% under setting [17]; 71% under setting [18]. Besides, the viability, T/C under setting [19] is 99.5%; the viability, T/C under setting [20] was 91.9%; the viability, T/C under setting [21] was 94.6%; the viability, T/C under setting [22] is 106%; the viability, T/C under setting [23] was 105%; the viability, T/C under setting [24] is 65.6%. Moreover, the viability, T/C is, setting by setting: under setting [25], 91%; under setting [26], 86.3%; under setting [27], 101%; under setting [28], 96.3%; under setting [29], 94.1%; under setting [30], 67.8%. Besides, the viability, T/C under setting [31] is 76.5%; the viability, T/C under setting [32] is 77.5%; the viability, T/C under setting [33] is 73.3%; the viability, T/C under setting [34] was 80.1%; the viability, T/C under setting [35] is 98.4%; the viability, T/C under setting [36] was 66.5%. The viability, T/C runs as follows: under setting [37], 82.2%; under setting [38], 73.5%; under setting [39], 83.1%; under setting [40], 81.8%; under setting [41], 95.4%; under setting [42], 73.8%.
Take `CC(C)(O)C1CCC(Nc2ccc3ncc(-c4cccc(C(F)(F)F)c4)n3n2)CC1` (configuration not stated): the viability, T/C is, setting by setting: (compound 0.0316 µM) 109% and 99.2% and 78.5%; (compound 0.1 µM) 101% and 97.4% and 88.4%; (compound 0.316 µM) 111% and 94.6% and 101%; (compound 1 µM) 105% and 80.1% and 66.9%; (compound 3.16 µM) 97.6% and 16% and 12.7%; (compound 10 µM) 87.6% and 15.5% and 13.5%. For the same compound, the IC50 (curve of compound) was > 10000 nM and 1720 nM and 1440 nM.
